Assay results reported in ChEMBL document CHEMBL3580534, “Antibacterial Biphenanthrenes from the Fibrous Roots of Bletilla striata” (2015).
Values after ≈ are worked out from the molar mass of the structure shown.

Tests used:
Assay type in all cases: functional
[1] = system: Proteus vulgaris; assay: Antimicrobial activity against Proteus vulgaris CMCC 49027 assessed as complete prevention of visible growth after incubation at 37 degC for 18 to 20 hrs
[2] = system: Staphylococcus epidermidis; assay: Antimicrobial activity against Staphylococcus epidermidis CMCC 26069 assessed as complete prevention of visible growth after incubation at 37 degC for 18 to 20 hrs
[3] = system: Escherichia coli; assay: Antimicrobial activity against Escherichia coli ATCC 35218 assessed as complete prevention of visible growth after incubation at 37 degC for 18 to 20 hrs
[4] = system: Enterococcus faecalis; assay: Antimicrobial activity against Enterococcus faecalis ATCC 29212 assessed as complete prevention of visible growth after incubation at 37 degC for 18 to 20 hrs
[5] = system: Staphylococcus aureus; assay: Antimicrobial activity against Staphylococcus aureus ATCC 25923 assessed as complete prevention of visible growth after incubation at 37 degC for 18 to 20 hrs
[6] = system: Staphylococcus aureus; assay: Antimicrobial activity against ampicillin-resistant Staphylococcus aureus ATCC 29213 assessed as complete prevention of visible growth after incubation at 37 degC for 18 to 20 hrs
[7] = system: Staphylococcus aureus; assay: Antimicrobial activity against methicillin-resistant Staphylococcus aureus ATCC 43300 assessed as complete prevention of visible growth after incubation at 37 degC for 18 to 20 hrs
[8] = system: Bacillus subtilis; assay: Antimicrobial activity against Bacillus subtilis CGMCC 1.1470 assessed as complete prevention of visible growth after incubation at 37 degC for 18 to 20 hrs

Structure (SMILES) | MIC [1] [µg/mL] | MIC [2] [µg/mL] | MIC [3] [µg/mL] | MIC [4] [µg/mL] | MIC [5] [µg/mL] | MIC [6] [µg/mL] | MIC [7] [µg/mL] | MIC [8] [µg/mL]
COc1ccc2c(ccc3c(-c4cc5c(cc4OC)-c4c(cc(O)cc4OC)CC5)c(O)cc(OC)c32)c1 | > 128 | > 128 | > 128 | > 128 | > 128 | > 128 | > 128 | > 128
COc1cc(O)c2c(c1)CCc1cc(O)c(-c3c(O)cc(OC)c4c3ccc3cc(OC)ccc34)cc1-2 | > 128 | 8 (≈ 16.2 µM) | > 128 | 64 (≈ 129 µM) | 8 (≈ 16.2 µM) | 8 (≈ 16.2 µM) | 8 (≈ 16.2 µM) | 16 (≈ 32.4 µM)
COc1ccc2c(ccc3c(-c4c(O)cc(OC)c5c4CCc4cc(O)ccc4-5)c(O)cc(OC)c32)c1 | > 128 | 4 (≈ 8.09 µM) | > 128 | 4 (≈ 8.09 µM) | 4 (≈ 8.09 µM) | 2 (≈ 4.04 µM) | 4 (≈ 8.09 µM) | 4 (≈ 8.09 µM)
COc1c(O)ccc2c1ccc1c(-c3c(O)cc(OC)c4c3ccc3c(OC)c(O)ccc34)c(O)cc(OC)c12 | > 128 | 8 (≈ 14.9 µM) | > 128 | 64 (≈ 119 µM) | 16 (≈ 29.7 µM) | 8 (≈ 14.9 µM) | 16 (≈ 29.7 µM) | 8 (≈ 14.9 µM)
CC1(C)S[C@@H]2[C@H](NC(=O)[C@H](N)c3ccccc3)C(=O)N2[C@H]1C(=O)O [AMPICILLIN] | > 8 | 8 (≈ 22.9 µM) | > 8 | 4 (≈ 11.4 µM) | 0.125 (≈ 0.358 µM) | 8 (≈ 22.9 µM) | > 8 | > 8
COc1cc(O)c(-c2c(O)cc(OC)c3c2ccc2cc(O)ccc23)c2ccc3cc(O)ccc3c12 [CIRRHOPETALANTHIN] | > 128 | 16 (≈ 33.4 µM) | > 128 | 16 (≈ 33.4 µM) | 32 (≈ 66.9 µM) | 16 (≈ 33.4 µM) | 16 (≈ 33.4 µM) | 8 (≈ 16.7 µM)
